Experimental data from the supplement of paper PMC10883282.

Key:
Test in all cases: relative viability vs DMSO control (72 h) (fraction); higher = more viable cells
[1] = test system: KHOS-240S
How it was run: (§1)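 Relative viability was measured with ATPLite and expressed as percent growth, averaged across up to triplicate wells. Sarcoma cell lines had been seeded in 384-well plates to reach 80–90% confluence, dosed after 24 h, and incubated 72 h at 37 °C, 5% CO2. All data were rescaled on a scale where 1 is full and 0 is none.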

[2] = test system: RD
How it was run: as §1

[3] = test system: SYO-1
How it was run: as §1

[4] = test system: MES-SA
How it was run: as §1

[5] = test system: SW1353
How it was run: as §1

[6] = test system: SW982
How it was run: as §1

[7] = test system: VA-ES-BJ
How it was run: as §1

[8] = test system: HT1080
How it was run: as §1

[9] = test system: SK-LMS-1
How it was run: as §1

[10] = test system: RD-ES
How it was run: as §1

[11] = test system: G401
How it was run: as §1

[12] = test system: SK-ES-1
How it was run: as §1

CC[C@@H]1CN(C(=O)NCC(F)(F)F)C[C@@H]1c1cnc2cnc3[nH]ccc3n12 [Upadacitinib]
Conditions	relative viability
[1], 0.00017 µM	1.09
[1], 0.00051 µM	1.06
[1], 0.00152 µM	1.09
[1], 0.00457 µM	1.1
[1], 0.01372 µM	1.08
[1], 0.04115 µM	1.09
[1], 0.1235 µM	1.06
[1], 0.3704 µM	1.04
[1], 1.111 µM	0.982
[1], 3.333 µM	0.919
[1], 10 µM	0.708
[2], 0.00017 µM	1.07
[2], 0.00051 µM	1.08
[2], 0.00152 µM	1.13
[2], 0.00457 µM	1.13
[2], 0.01372 µM	1.14
[2], 0.04115 µM	1.14
[2], 0.1235 µM	1.08
[2], 0.3704 µM	1.14
[2], 1.111 µM	1.14
[2], 3.333 µM	1.07
[2], 10 µM	1
[3], 0.00017 µM	1.04
[3], 0.00051 µM	1
[3], 0.00152 µM	0.988
[3], 0.00457 µM	0.978
[3], 0.01372 µM	0.958
[3], 0.04115 µM	0.934
[3], 0.1235 µM	0.927
[3], 0.3704 µM	0.894
[3], 1.111 µM	0.826
[3], 3.333 µM	0.764
[3], 10 µM	0.592
[4], 0.00017 µM	0.941
[4], 0.00051 µM	0.949
[4], 0.00152 µM	0.947
[4], 0.00457 µM	0.939
[4], 0.01372 µM	0.932
[4], 0.04115 µM	0.92
[4], 0.1235 µM	0.923
[4], 0.3704 µM	0.936
[4], 1.111 µM	0.885
[4], 3.333 µM	0.873
[4], 10 µM	0.812
[5], 0.00017 µM	1.04
[5], 0.00051 µM	1.04
[5], 0.00152 µM	1.02
[5], 0.00457 µM	1.04
[5], 0.01372 µM	0.997
[5], 0.04115 µM	1.01
[5], 0.1235 µM	1.001
[5], 0.3704 µM	0.942
[5], 1.111 µM	0.937
[5], 3.333 µM	0.84
[5], 10 µM	0.686
[6], 0.00017 µM	1.01
[6], 0.00051 µM	1.022
[6], 0.00152 µM	1.05
[6], 0.00457 µM	1.05
[6], 0.01372 µM	1.052
[6], 0.04115 µM	1.04
[6], 0.1235 µM	1.06
[6], 0.3704 µM	1.043
[6], 1.111 µM	1
[6], 3.333 µM	0.969
[6], 10 µM	0.779
[7], 0.00017 µM	1.1
[7], 0.00051 µM	1.05
[7], 0.00152 µM	1.07
[7], 0.00457 µM	1.04
[7], 0.01372 µM	1.05
[7], 0.04115 µM	1.06
[7], 0.1235 µM	1.04
[7], 0.3704 µM	1.037
[7], 1.111 µM	1
[7], 3.333 µM	1.03
[7], 10 µM	0.995
[8], 0.00017 µM	1.06
[8], 0.00051 µM	1.06
[8], 0.00152 µM	1.08
[8], 0.00457 µM	1.05
[8], 0.01372 µM	1.07
[8], 0.04115 µM	1.06
[8], 0.1235 µM	1.05
[8], 0.3704 µM	1.062
[8], 1.111 µM	1.035
[8], 3.333 µM	1.01
[8], 10 µM	0.9733
[9], 0.00017 µM	1.06
[9], 0.00051 µM	1.05
[9], 0.00152 µM	1.07
[9], 0.00457 µM	1.07
[9], 0.01372 µM	1.09
[9], 0.04115 µM	1.08
[9], 0.1235 µM	1.056
[9], 0.3704 µM	1.05
[9], 1.111 µM	1.02
[9], 3.333 µM	0.979
[9], 10 µM	0.772
[10], 0.00017 µM	0.981
[10], 0.00051 µM	0.979
[10], 0.00152 µM	1
[10], 0.00457 µM	0.979
[10], 0.01372 µM	1
[10], 0.04115 µM	0.99
[10], 0.1235 µM	0.97
[10], 0.3704 µM	0.974
[10], 1.111 µM	0.964
[10], 3.333 µM	0.996
[10], 10 µM	0.989
[11], 0.00017 µM	1.03
[11], 0.00051 µM	1.04
[11], 0.00152 µM	1
[11], 0.00457 µM	1.04
[11], 0.01372 µM	1.02
[11], 0.04115 µM	0.987
[11], 0.1235 µM	1.01
[11], 0.3704 µM	0.977
[11], 1.111 µM	0.953
[11], 3.333 µM	0.904
[11], 10 µM	0.842
[12], 0.00017 µM	1.02
[12], 0.00051 µM	1.01
[12], 0.00152 µM	1.05
[12], 0.00457 µM	1.02
[12], 0.01372 µM	1.02
[12], 0.04115 µM	1
[12], 0.1235 µM	1.058
[12], 0.3704 µM	1.01
[12], 1.111 µM	0.982
[12], 3.333 µM	0.986
[12], 10 µM	0.907
